Reference: US11147272B2, “Pyridone compounds and agricultural and horticultural fungicides comprising the same as active ingredients” (MITSUI CHEMICALS AGRO, INC., priority 2017, dated 2021)

How the values were obtained:
Puccinia recondita = assay: Test Example E: Brown rust on wheat; type: in vivo; conditions: Brown rust on wheat; control value class
[1] = test system: Blumeria graminis f. sp. hordei; assay: Test Example D: Powdery mildew on barley; conditions: Powdery mildew on barley; control value class
Plasmopara viticola = assay: Test Example G: Downy mildew on vine; conditions: Downy mildew on vine; 250 ppm spray, 7 to 10 days after inoculation
[2] = test system: Colletotrichum orbiculare; assay: Test Example H: Anthracnose on cucumber; conditions: Anthracnose on cucumber; 250 ppm spray, 6 to 10 days after inoculation
Phytophthora infestans = assay: whole plant or invertebrate; type: in vivo; conditions: Late blight on tomato; control value class
Magnaporthe grisea = assay: whole plant or invertebrate; type: in vivo; conditions: Blast on rice; control value class
Botrytis cinerea = assay: Test Example B: Gray mold on tomato; conditions: Gray mold on tomato; control value class
Alternaia brassicicola = assay: Test Example C: Alternaria sooty spot on cabbage; type: in vivo; conditions: Alternaria sooty spot on cabbage; control value class
From the text: Seeds of a test plant (cabbage variety: Shikidori) were planted and cultivated until the cotyledons extended.
<Control Value> Control value=100{1−(n/3)}

| SMILES | Test E control value (Puccinia recondita) | Test D control value [1] | Test G control value (Plasmopara viticola) | Test H control value [2] | Test F control value (Phytophthora infestans) | Test A control value (Magnaporthe grisea) | Test B control value (Botrytis cinerea) | Test C control value (Alternaia brassicicola) |
| --- | --- | --- | --- | --- | --- | --- | --- | --- |
| CCn1c(-c2ccccc2Cl)c(CC(C)C)cc(Br)c1=O [compound 264] | H (more than 50% control value) | H (more than 50% control value) | L (50% or less control value) | H (more than 50% control value) | L (50% or less control value) | L (50% or less control value) | H (more than 50% control value) | H (more than 50% control value) |
| CCn1c(-c2ccccc2Cl)c(CC(C)C)cc(Cl)c1=O [compound 265] | H (more than 50% control value) | H (more than 50% control value) | H (more than 50% control value) | H (more than 50% control value) | L (50% or less control value) | H (more than 50% control value) | H (more than 50% control value) | H (more than 50% control value) |
| CCCCCCCc1ccc(=O)n(CC)c1-c1ccc(F)cc1Cl [compound 266] | H (more than 50% control value) | H (more than 50% control value) | L (50% or less control value) | H (more than 50% control value) | L (50% or less control value) | L (50% or less control value) | L (50% or less control value) | L (50% or less control value) |
| CCCCCCCCCC1=C(c2ccc(F)cc2Cl)N(CC)C(=O)CC1 [compound 267] | L (50% or less control value) | H (more than 50% control value) | L (50% or less control value) | H (more than 50% control value) | L (50% or less control value) | L (50% or less control value) | L (50% or less control value) | L (50% or less control value) |
| CCCCCCCc1cc(Cl)c(=O)n(CC)c1-c1ccc(F)cc1Cl [compound 268] | L (50% or less control value) | H (more than 50% control value) | L (50% or less control value) | L (50% or less control value) | L (50% or less control value) | L (50% or less control value) | L (50% or less control value) | L (50% or less control value) |
| CCCCCCCc1cc(Br)c(=O)n(CC)c1-c1ccc(F)cc1Cl [compound 269] | L (50% or less control value) | H (more than 50% control value) | L (50% or less control value) | L (50% or less control value) | L (50% or less control value) | L (50% or less control value) | L (50% or less control value) | L (50% or less control value) |
| CCCCCCCCc1ccc(=O)n(CC)c1-c1ccc(F)cc1Cl [compound 270] | L (50% or less control value) | H (more than 50% control value) | L (50% or less control value) | L (50% or less control value) | L (50% or less control value) | L (50% or less control value) | L (50% or less control value) | L (50% or less control value) |
| CCCCCCCCc1cc(Cl)c(=O)n(CC)c1-c1ccc(F)cc1Cl [compound 271] | L (50% or less control value) | H (more than 50% control value) | L (50% or less control value) | L (50% or less control value) | L (50% or less control value) | L (50% or less control value) | L (50% or less control value) | L (50% or less control value) |
| CCCCCCCCc1cc(Br)c(=O)n(CC)c1-c1ccc(F)cc1Cl [compound 272] | H (more than 50% control value) | L (50% or less control value) | L (50% or less control value) | L (50% or less control value) | L (50% or less control value) | L (50% or less control value) | L (50% or less control value) | L (50% or less control value) |
| CCCCCCCCCc1ccc(=O)n(CC)c1-c1ccc(F)cc1Cl [compound 273] | L (50% or less control value) | H (more than 50% control value) | L (50% or less control value) | L (50% or less control value) | L (50% or less control value) | L (50% or less control value) | L (50% or less control value) | L (50% or less control value) |
| CCCCCCCCCc1cc(Cl)c(=O)n(CC)c1-c1ccc(F)cc1Cl [compound 274] | L (50% or less control value) | H (more than 50% control value) | L (50% or less control value) | L (50% or less control value) | L (50% or less control value) | L (50% or less control value) | L (50% or less control value) | L (50% or less control value) |
| CCCCCCCCCc1cc(Br)c(=O)n(CC)c1-c1ccc(F)cc1Cl [compound 275] | L (50% or less control value) | H (more than 50% control value) | L (50% or less control value) | L (50% or less control value) | L (50% or less control value) | L (50% or less control value) | L (50% or less control value) | L (50% or less control value) |
| CCCCC(O)c1cc(Cl)c(=O)n(CC)c1-c1c(F)cc(F)cc1F (stereo not drawn) [compound 276] | H (more than 50% control value) | H (more than 50% control value) | H (more than 50% control value) | L (50% or less control value) | L (50% or less control value) | H (more than 50% control value) | H (more than 50% control value) | H (more than 50% control value) |
| CCCCC(=O)c1cc(Cl)c(=O)n(CC)c1-c1c(F)cc(F)cc1F [compound 277] | H (more than 50% control value) | H (more than 50% control value) | H (more than 50% control value) | H (more than 50% control value) | L (50% or less control value) | H (more than 50% control value) | H (more than 50% control value) | H (more than 50% control value) |
| CCN1C(=O)CCC(C)=C1c1ccc(F)cc1Cl [compound 278] | L (50% or less control value) | L (50% or less control value) | L (50% or less control value) | H (more than 50% control value) | H (more than 50% control value) | L (50% or less control value) | L (50% or less control value) | L (50% or less control value) |
| CCn1c(-c2ccc(F)cc2Cl)c(C)ccc1=O [compound 279] | L (50% or less control value) | H (more than 50% control value) | L (50% or less control value) | L (50% or less control value) | L (50% or less control value) | L (50% or less control value) | L (50% or less control value) | L (50% or less control value) |
| CCn1c(-c2ccc(F)cc2Cl)c(C)cc(Cl)c1=O [compound 280] | H (more than 50% control value) | H (more than 50% control value) | L (50% or less control value) | H (more than 50% control value) | L (50% or less control value) | L (50% or less control value) | H (more than 50% control value) | L (50% or less control value) |
| CCn1c(-c2ccc(F)cc2Cl)c(C)cc(Br)c1=O [compound 281] | H (more than 50% control value) | H (more than 50% control value) | L (50% or less control value) | H (more than 50% control value) | L (50% or less control value) | L (50% or less control value) | H (more than 50% control value) | L (50% or less control value) |
